Reference: patent US6350749B1, “Aminoguanidine hydrazone derivatives, process for producing the same and drugs thereof” (Takeda Chemical Industries, Ltd., priority 1998, dated 2002)
Counter-ions that a name gives are not always drawn. Like-named read-outs stand apart in the source and are kept apart here.

Experiments:
Na—H exchange = target: T1, Na—H exchange (Rattus norvegicus, UniProt P26431); assay: Rat platelet swelling in sodium propionate solution (light transmittance of PRP), inhibition of Na—H exchange; type: cell-based; settings: for inhibition at 0.1 µM: 1 min, read-out: Inhibition Rate (%) [10^−7 M]
T1 construct: The blood was centrifuged at 3000 rpm for 5 seconds to obtain platelet rich plasma (PRP); from tissue; host or cells: platelets in platelet rich plasma from abdominal aortic blood of male Wistar rats
T1 sequence (P26431 whole entry): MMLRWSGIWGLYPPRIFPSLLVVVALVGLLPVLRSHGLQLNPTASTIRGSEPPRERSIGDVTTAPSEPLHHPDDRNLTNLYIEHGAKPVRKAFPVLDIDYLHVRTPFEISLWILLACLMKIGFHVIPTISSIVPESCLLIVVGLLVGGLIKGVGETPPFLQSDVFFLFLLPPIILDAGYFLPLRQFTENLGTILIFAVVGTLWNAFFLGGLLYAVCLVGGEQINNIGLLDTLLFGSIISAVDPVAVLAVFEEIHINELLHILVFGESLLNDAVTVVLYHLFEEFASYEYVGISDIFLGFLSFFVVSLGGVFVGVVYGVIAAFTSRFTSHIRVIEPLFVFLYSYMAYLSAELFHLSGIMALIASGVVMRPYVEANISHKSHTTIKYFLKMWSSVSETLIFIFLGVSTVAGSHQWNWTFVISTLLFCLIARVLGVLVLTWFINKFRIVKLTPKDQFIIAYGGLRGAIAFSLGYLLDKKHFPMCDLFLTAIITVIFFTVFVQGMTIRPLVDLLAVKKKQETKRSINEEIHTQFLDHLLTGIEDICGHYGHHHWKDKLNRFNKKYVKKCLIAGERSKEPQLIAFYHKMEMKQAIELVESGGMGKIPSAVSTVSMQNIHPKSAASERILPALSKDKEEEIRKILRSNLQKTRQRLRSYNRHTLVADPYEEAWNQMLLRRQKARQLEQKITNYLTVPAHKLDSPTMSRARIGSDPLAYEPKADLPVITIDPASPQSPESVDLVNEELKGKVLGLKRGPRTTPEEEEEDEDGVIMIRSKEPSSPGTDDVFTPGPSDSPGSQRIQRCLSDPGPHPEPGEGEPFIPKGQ
Method: Male Wistar rats (350-450 g) were anesthetized with sodium pentobarbital (50 mg/kg, i.p.). Using a disposable syringe pre-filled with 1.5 ml of 3.8% citric acid solution, 8.5 ml of blood was collected from the abdominal aorta. The blood was centrifuged at 3000 rpm for 5 seconds to obtain platelet rich plasma (PRP). The number of platelets in the PRP was counted by an automatic hemocytometer (Sysmex 2500, TOA Medical Electronics). The PRP was diluted with physiological saline to make the concentration of 40×10^4 platelets per 1 μl. A platelet aggregometer (Hematoracer, Niko Bioscience) was used for measurement of the platelet swelling. 200 μl of the PRP was poured into a cuvette and 600 μl of sodium propionate solution (Na propionate 135, glucose 10, Hepes 20, CaCl2 1, MgCl2 1; Units: mM; pH6.7) was added while stirring at 37° C. The change in the light transmittance of PRP which was an indicator of the platelet swelling was recorded on a plotter. The test compound was added 3 minutes before addition of the sodium propionate solution. The test compounds were dissolved in dimethylsulfoxide (DMSO).

[1] = test compound 10^−7 M, rat platelet rich plasma, value 1 minute after sodium propionate solution, 100% = difference between 1% DMSO and HOE-642 (10^−5M)

## Cc1ccnc2c1C(=NNC(=N)NO)CC(c1ccsc1)C2.Cl (centres unmarked)
other
  melting point: 201 to 202 °C (dec.)

## CS(=O)(=O)n1ccc2c1CC(c1ccccc1)CC2=NNC(=N)N.Cl (centres unmarked)
other
  melting point: 270 °C (dec.)

## Cc1ccnc2c1C(=NNC(=N)N)CC(c1cc(Cl)ccc1Cl)C2.Cl (centres unmarked)
other
  melting point: ≥ 300 °C

## Cc1ccnc2c1C(=NNC(=N)NO)CC(c1cc(Br)sc1Br)C2.Cl (centres unmarked)
other
  melting point: 194 to 196 °C (dec.)

## Cc1cn(S(C)(=O)=O)c2c1C(=NNC(=N)N)CC(c1ccccc1)C2.Cl (centres unmarked)
other
  melting point: 260 °C (dec.)

## Cl.N=C(N)NN=C1CC(c2ccccc2Cl)Cc2[nH]nc(Nc3ccccc3)c21 (centres unmarked)
other
  melting point: 208 to 210 °C

## Cl.N=C(N)NN=C1CC(c2ccccc2Cl)Cc2[nH]nc(-c3ccccc3)c21 (centres unmarked)
other
  melting point: 185 °C (dec.)

## Cc1c2c(nn1CCc1ccccc1)CC(c1ccccc1Cl)CC2=NNC(=N)N.Cl (centres unmarked)
other
  melting point: 185 °C (dec.)

## Cc1nn(CCCc2ccccc2)c2c1C(=NNC(=N)N)CC(c1ccccc1Cl)C2.Cl (centres unmarked)
other
  melting point: 210 °C (dec.)

## Cc1cnnc2c1C(=NNC(=N)NO)CC(c1cc(Cl)sc1Cl)C2.Cl (centres unmarked)
other
  melting point: 176 to 178 °C

## Cc1cc[n+]([O-])c2c1C(=NNC(=N)N)CC(c1cc(Cl)sc1Cl)C2.Cl (centres unmarked)
other
  melting point: ≥ 300 °C

## Cc1c[n+]([O-])nc2c1C(=NNC(=N)N)CC(c1ccccc1Cl)C2.Cl (centres unmarked)
other
  melting point: 249 to 250 °C

## Cc1ccnc2c1C(=NNC(=N)N)CC(c1cc(F)ccc1O)C2.Cl (centres unmarked)
other
  melting point: 264 to 266 °C

## Cc1cc(Cl)c(C2CC(=NNC(=N)N)c3c(C)ccnc3C2)s1.Cl (centres unmarked)
other
  melting point: 198 to 200 °C

## CCc1c[nH]c2c1C(=NNC(=N)N)CC(c1ccccc1)C2.Cl (centres unmarked)
other
  melting point: 158 to 160 °C

## Cc1coc2c1/C(=N/NC(=N)N)CC(c1ccc(F)cc1)C2.Cl (centres unmarked)
other
  melting point: 277 °C (dec.)

## COc1ccccc1C1C/C(=N\NC(=N)N)c2c(C)coc2C1.Cl (centres unmarked)
other
  melting point: 279 °C (dec.)

## Cl.N=C(N)N/N=C1\CC(c2ccccc2)Cc2occ(C(F)(F)F)c21 (centres unmarked)
other
  melting point: 291 °C (dec.)

## Cc1ccccc1C1CC(=NNC(=N)N)c2c(C(F)(F)F)coc2C1.Cl (centres unmarked)
other
  melting point: 247 °C (dec.)

## Cc1ccc(C)c(C2CC(=NNC(=N)N)c3c(C)ccnc3C2)c1.Cl (centres unmarked)
other
  melting point: 260 to 262 °C

## Cc1ccnc2c1C(=NNC(=N)N)CC(c1c(Cl)cccc1Cl)C2.Cl (centres unmarked)
other
  melting point: ≥ 300 °C

## Cl.Cn1ccc2c1CC(c1ccccc1)CC2=NNC(=N)N (centres unmarked)
other
  melting point: 205 °C (dec.)

## Cc1ccc(C2CC(=NNC(=N)N)c3c(C)ccnc3C2)s1.Cl (centres unmarked)
other
  melting point: 271 to 273 °C

## Cc1ccnc2c1C(=NNC(=N)N)CC(c1ccccn1)C2.Cl (centres unmarked)
other
  melting point: 260 °C (dec.)

## Cc1ccnc2c1C(=NNC(=N)N)CC(c1ccc(F)cc1)C2.Cl (centres unmarked)
other
  melting point: 259 °C (dec.)

## Cc1cc(C)c2c(n1)CC(c1ccccc1F)CC2=NNC(=N)N.Cl (centres unmarked)
other
  melting point: 232 °C (dec.)

## Cc1ccnc2c1C(=NNC(=N)NO)CC(c1c(Cl)cccc1Cl)C2.Cl (centres unmarked)
other
  melting point: 193 to 195 °C (dec.)

## CS(=O)(=O)O.Cc1ccnc2c1C(=NNC(=N)N)CC(c1cc(Cl)sc1Cl)C2.O (centres unmarked) (hydrate or solvate)
other
  melting point: 239 to 241 °C

## Cc1ccnc2c1C(=NNC(=N)N)CC(c1cc(Cl)sc1Cl)C2 (racemic) [Compound 108, (±)-7-(2,5-dichlorothiophen-3-yl)-5-guanidinoimino-4-methyl-5,6,7,8-tetrahydroquinoline]
other
  melting point: 250 to 251 °C

## CS(=O)(=O)O.Cc1ccnc2c1C(=NNC(=N)N)CC(c1ccccc1Cl)C2 (single isomer, unassigned; (-)) [Compound 64, (−)-7-(2-chlorophenyl)-5-guanidinoimino-4-methyl-5,6,7,8-tetrahydroquinoline methanesulfonate]
other
  melting point: 194 to 195 °C
Na—H exchange; [1]
  inhibition at 0.1 µM: 86%

## Cc1ccnc2c1C(=NNC(=N)N)CC(c1cc(Cl)sc1Cl)C2 (single isomer, unassigned; (-)) [Compound 109, (−)-7-(2,5-dichlorothiophen-3-yl)-5-guanidinoimino-4-methyl-5,6,7,8-tetrahydroquinoline hydrochloride]
Na—H exchange
  inhibition at 0.1 µM: 91%

## Cc1ccnc2c1C(=NNC(=N)N)CC(c1cc(Cl)sc1Cl)C2 (single isomer, unassigned; (-)) [Compound 112, (−)-7-(2,5-dichlorothiophen-3-yl)-5-guanidinoimino-4-methyl-5,6,7,8-tetrahydroquinoline]
other
  melting point: 129 to 133 °C

## CS(=O)(=O)O.Cc1ccnc2c1C(=NNC(=N)N)CC(c1cc(Cl)sc1Cl)C2 (single isomer, unassigned; (-)) [Compound 113, (−)-7-(2,5-dichlorothiophen-3-yl)-5-guanidinoimino-4-methyl-5,6,7,8-tetrahydroquinoline methanesulfonate]
other
  melting point: 229 to 231 °C
Na—H exchange; [1]
  inhibition at 0.1 µM: 100%

## Cc1ccccc1C1CC(=NNC(=N)N)c2c(C)c[nH]c2C1.Cl (centres unmarked) [Compound 6, 4-guanidinoimino-3-methyl-6-(2-methylphenyl)-4,5,6,7-tetrahydroindole hydrochloride]
other
  melting point: 187 °C (dec.)
Na—H exchange; [1]
  inhibition at 0.1 µM: 86%

## Cc1n[nH]c2c1C(=NNC(=N)N)CC(c1ccccc1Cl)C2 (centres unmarked) [Compound 21, 4-guanidinoimino-6-(2-chlorophenyl)-3-methyl-4,5,6,7-tetrahydroindazole hydrochloride]
Na—H exchange; [1]
  inhibition at 0.1 µM: 72%

## CCc1n[nH]c2c1C(=NNC(=N)N)CC(c1ccccc1Cl)C2.Cl (centres unmarked) [Compound 27, 6-(2-chlorophenyl)-3-ethyl-4-guanidinoimino-4,5,6,7-tetrahydroindazole hydrochloride]
other
  melting point: 196 to 200 °C
Na—H exchange; [1]
  inhibition at 0.1 µM: 76%

## Cc1coc2c1C(=NNC(=N)N)CC(c1cccs1)C2.Cl (centres unmarked) [Compound 48, 4-guanidinoimino-3-methyl-6-(2-thienyl)-4,5,6,7-tetrahydrobenzofuran hydrochloride]
other
  melting point: 285 °C (dec.)
Na—H exchange; [1]
  inhibition at 0.1 µM: 70%

## Cc1ccnc2c1C(=NNC(=N)N)CC(c1ccccc1F)C2 (centres unmarked) [Compound 59, 7-(2-fluorophenyl)-5-guanidinoimino-4-methyl-5,6,7,8-tetrahydroquinoline hydrochloride]
Na—H exchange; [1]
  inhibition at 0.1 µM: 72%

## Cc1ccnc2c1C(=NNC(=N)N)CC(c1ccccc1Cl)C2.Cl (centres unmarked) [Compound 61, 7-(2-chlorophenyl)-5-guanidinoimino-4-methyl-5,6,7,8-tetrahydroquinoline hydrochloride]
other
  melting point: 204 °C (dec.)
Na—H exchange; [1]
  Inhibition Rate (%) [10^−7 M]: 78%

## CS(=O)(=O)O.Cc1ccnc2c1C(=NNC(=N)N)CC(c1ccccc1Cl)C2 (centres unmarked) [Compound 65]
other
  melting point: 194 to 196 °C

## Cc1ccnc2c1C(=NNC(=N)N)CC(c1ccccc1O)C2.Cl (centres unmarked) [Compound 68, 5-guanidinoimino-7-(2-hydroxyphenyl)-4-methyl-5,6,7,8-tetrahydroquinoline hydrochloride]
other
  melting point: 161 °C (dec.)
Na—H exchange; [1]
  inhibition at 0.1 µM: 70%

## Cc1ccnc2c1C(=NNC(=N)N)CC(c1cccs1)C2.Cl (centres unmarked) [Compound 70, 5-guanidinoimino-4-methyl-7-(2-thienyl)-5,6,7,8-tetrahydroquinoline hydrochloride]
other
  melting point: 225 °C (dec.)
Na—H exchange; [1]
  inhibition at 0.1 µM: 81%

## Cc1ccsc1C1CC(=NNC(=N)N)c2c(C)ccnc2C1.Cl (centres unmarked) [Compound 73, 5-guanidinoimino-4-methyl-7-(3-methyl-2-thienyl)-5,6,7,8-tetrahydroquinoline hydrochloride]
other
  melting point: 184 to 187 °C
Na—H exchange; [1]
  inhibition at 0.1 µM: 76%

## Cc1ccnc2c1C(=NNC(=N)N)CC(c1sccc1Cl)C2.Cl (centres unmarked) [Compound 74, 7-(3-chloro-2-thienyl)-5-guanidinoimino-4-methyl-5,6,7,8-tetrahydroquinoline hydrochloride]
other
  melting point: 203 °C (dec.)
Na—H exchange; [1]
  inhibition at 0.1 µM: 98%

## COc1ccnc2c1C(=NNC(=N)N)CC(c1ccccc1Cl)C2.CS(=O)(=O)O (centres unmarked) [Compound 79, 7-(2-chlorophenyl)-5-guanidinoimino-4-methoxy-5,6,7,8-tetrahydroquinoline methanesulfonate]
other
  melting point: 158 to 159 °C
Na—H exchange; [1]
  inhibition at 0.1 µM: 77%

## CCOc1ccnc2c1C(=NNC(=N)N)CC(c1ccccc1Cl)C2 (centres unmarked) [Compound 80, 7-(2-chlorophenyl)-4-ethoxy-5-guanidinoimino-5,6,7,8-tetrahydroquinoline hydrochloride]
Na—H exchange; [1]
  inhibition at 0.1 µM: 75%

## CS(=O)(=O)O.Cc1ccnc2c1C(=NNC(=N)N)CC(c1cc(Cl)sc1Cl)C2 (centres unmarked) [Compound 111]
other
  melting point: 225 to 229 °C

## CCc1cnnc2c1C(=NNC(=N)N)CC(c1cc(Cl)sc1Cl)C2 (centres unmarked) [Compound 134, 7-(2,5-dichlorothiophen-3-yl)-4-ethyl-5-guanidinoimino-5,6,7,8-tetrahydrocinnoline methanesulfonate]
Na—H exchange; [1]
  inhibition at 0.1 µM: 83%

## N=C(N)NN=C1CC(c2cc(Cl)sc2Cl)Cc2nncc(C(F)(F)F)c21 (centres unmarked) [Compound 135, 7-(2,5-dichlorothiophen-3-yl)-5-guanidinoimino-4-trifluoromethyl-5,6,7,8-tetrahydrocinnoline]
other
  melting point: 265 to 266 °C (dec.)

## CS(=O)(=O)O.Cc1ccnc2c1C(=NNC(=N)N)CC(c1sc(Cl)cc1Cl)C2 (centres unmarked) [Compound 143]
other
  melting point: 168 to 172 °C

## CS(=O)(=O)O.Cc1ccnc2c1C(=NNC(=N)N)CC(c1sc(Cl)cc1Cl)C2 (centres unmarked) [Compound 144]
other
  melting point: 172 to 176 °C
